The values below come from patent publication US20240115744A1, “FIBRIN-BINDING COMPOUNDS FOR IMAGING AND TREATMENT” (Collagen Medical, LLC, priority 2019, published 2024).

Series [1] has as its target T1, vessel wall fibrin (Rattus norvegicus, UniProt P02680+P06399+P14480).
T1 construct: resulting in mural thrombus formation at the site of the crush; from tissue; host or cells: injured common carotid artery of Wistar rats (in vivo and ex vivo autoradiography)
T1 sequence (P06399 37-782 limits assumed): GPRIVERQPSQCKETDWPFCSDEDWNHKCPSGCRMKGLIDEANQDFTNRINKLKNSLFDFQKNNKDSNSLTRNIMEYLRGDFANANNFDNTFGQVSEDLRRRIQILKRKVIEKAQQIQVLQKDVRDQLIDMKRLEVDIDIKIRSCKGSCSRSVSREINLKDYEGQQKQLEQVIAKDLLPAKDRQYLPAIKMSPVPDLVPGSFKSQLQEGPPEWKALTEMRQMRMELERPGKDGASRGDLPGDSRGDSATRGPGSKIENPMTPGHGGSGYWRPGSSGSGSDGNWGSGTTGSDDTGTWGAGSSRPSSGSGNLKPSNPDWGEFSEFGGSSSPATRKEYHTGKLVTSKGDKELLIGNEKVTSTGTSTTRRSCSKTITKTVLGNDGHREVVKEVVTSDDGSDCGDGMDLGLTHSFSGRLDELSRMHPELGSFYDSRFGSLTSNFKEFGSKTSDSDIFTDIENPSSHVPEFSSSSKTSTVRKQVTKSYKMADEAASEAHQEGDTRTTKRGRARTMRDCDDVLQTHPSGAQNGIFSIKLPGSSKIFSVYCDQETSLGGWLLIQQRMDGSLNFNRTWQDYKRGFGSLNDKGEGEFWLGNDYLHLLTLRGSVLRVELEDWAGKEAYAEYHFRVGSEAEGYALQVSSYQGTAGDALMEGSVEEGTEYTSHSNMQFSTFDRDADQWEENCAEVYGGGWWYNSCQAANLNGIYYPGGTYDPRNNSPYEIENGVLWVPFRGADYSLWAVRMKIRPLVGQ
T1 sequence (P14480 33-479 limits assumed): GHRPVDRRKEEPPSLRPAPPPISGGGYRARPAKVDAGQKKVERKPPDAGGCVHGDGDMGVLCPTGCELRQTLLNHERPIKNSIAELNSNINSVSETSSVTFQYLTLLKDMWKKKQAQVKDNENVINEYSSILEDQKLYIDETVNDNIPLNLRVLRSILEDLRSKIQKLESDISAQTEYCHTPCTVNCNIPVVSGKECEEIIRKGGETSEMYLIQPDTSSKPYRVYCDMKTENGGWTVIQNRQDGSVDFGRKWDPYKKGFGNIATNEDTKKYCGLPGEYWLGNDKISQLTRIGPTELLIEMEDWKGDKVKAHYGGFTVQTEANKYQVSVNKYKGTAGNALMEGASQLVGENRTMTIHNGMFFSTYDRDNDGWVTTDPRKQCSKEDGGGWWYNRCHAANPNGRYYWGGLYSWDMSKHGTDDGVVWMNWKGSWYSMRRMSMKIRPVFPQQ
T1 sequence (P02680 27-445 limits assumed): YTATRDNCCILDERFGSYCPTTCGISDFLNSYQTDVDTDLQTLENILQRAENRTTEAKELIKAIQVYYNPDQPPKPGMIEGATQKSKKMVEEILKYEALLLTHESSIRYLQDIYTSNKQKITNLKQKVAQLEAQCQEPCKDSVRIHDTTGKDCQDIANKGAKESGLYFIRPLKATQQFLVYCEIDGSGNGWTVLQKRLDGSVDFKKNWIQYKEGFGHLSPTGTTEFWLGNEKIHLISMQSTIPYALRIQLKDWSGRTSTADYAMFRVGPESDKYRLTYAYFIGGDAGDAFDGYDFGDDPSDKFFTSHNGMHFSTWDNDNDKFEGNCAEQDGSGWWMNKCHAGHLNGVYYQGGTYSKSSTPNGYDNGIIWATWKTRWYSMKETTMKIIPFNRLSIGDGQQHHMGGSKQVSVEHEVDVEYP
Put plainly: Autoradiography / PET imaging of injured ipsi- and contra-lateral carotid arteries. As to conditions: rat injured vs contra-lateral carotid; ^68Ga-19 vs ^68Ga-20. It is filed as in vivo. As to the method:
(§1) Rat carotid endothelial injury model in vivo studies were conducted, wherein the common carotid artery is isolated and crushed briefly with a hemostat, resulting in mural thrombus formation at the site of the crush. The vessel wall fibrin is then imaged with our PET compounds. All six compounds were evaluated in this model.
(§2) Adult male Wistar rats were anesthetized by isoflurane (1-2% in medical air). Body temperature was maintained at 37° C. using a thermo-regulated heating pad. The right femoral vein and artery were cannulated for compound injection and blood sampling, respectively. Endothelial injury was induced by crush injury to the right common carotid artery (1-2 cm proximal to the carotid bifurcation) by clamping the vessel with a hemostat for 5 minutes. Immediately following the surgical procedures, rats were placed in a micro-PET/CT scanner. Compound (200-600 μL) was injected, PET-CT images were acquired, and blood samples were drawn from the femoral artery prior to compound injection and at 2, 5, 10, 15, 30, 60, 90, 120 min post injection. Tissues were harvested at the end for ex vivo analyses.
The injured ipsi- and the contra-lateral carotid arteries were placed on a multipurpose film and imaged using a Perkin-Elmer Cyclone Plus Storage Phosphor system. […]

Series [2] relates to fibrin in human carotid endarterectomy specimens. Description: Ex vivo functional probe assay of human carotid endarterectomy specimens. As to conditions: compared to non-binding probe ^68Ga-22; 12 patients; P<0.05. As to the method: Twelve discarded surgical specimens from asymptomatic patients who underwent elective carotid endarterectomy at Massachusetts General Hospital were obtained and used in ex vivo studies described herein. Samples were processed for histology, autoradiography, and probe binding assay as described above (Examples 6 and 13).
Discarded surgical specimens were embedded in optimal cutting temperature compound, snap-frozen, and stored at −80° C. before further analysis. Alternating consecutive cryosections were processed for histology and autoradiography; triplicate tissue samples with 50 μm gap in between were used for these experiments. The remaining tissue samples were processed for functional probe assay.
For functional probe assay, samples were thawed at room temperature, weighed (8-15 mg per sample), cut into duplicates, and placed into tubes containing 111-148 kBq (3-4 μCi)^68Ga-20 or the non-fibrin binding control probe ^68Ga-22 in 1 mL PBS. The mixture was shaken for 45 minutes at room temperature. After centrifugation, supernatant (sup-1) was removed, kept for further analysis, and tissue samples were washed with PBS (1 mL); this procedure was repeated twice for each sample. Wash solutions (wash-1 and wash-2) were kept for further analysis. Activities in tissue samples and solutions sol-1, wash-1, and wash-2 were measured on a gamma counter. Percent uptake was calculated as follows: […]

Series [3] can be described thus: Blood analysis in rat model of carotid artery crush injury (blood clearance). It counts as in vivo. As to conditions: relative to the other compounds compared. As to the method:
as §1, §2
Blood samples were drawn from prior to probe injection and at 2, 5, 10, 15, 30, 60, 90, 120 min post injection. Each blood sample was weighed and counted using a gamma-counter. The activity in each sample was calculated as percent injected dose (% ID) per gram of tissue.

Structures are written as SMILES. “Also recorded” adds a separate entry of the source. *1 amine or outer side, *2 acyl side, *3 side chain or, on linkers, in order; H or OH if unused. Where a SMILES comes first, the peptide text is derived from it. Bridges are numbered along the chain shown (N, C = ends). [ ]: non-standard residue; d: D form. The star is where a group is joined. NODAGA = O=C(O)CN1CCN(CC(=O)O)CCN(C(CCC(=O)*)C(=O)O)CC1; Tyr(3-Cl) = N[C@@H](Cc1ccc(O)c(Cl)c1)C(=O)O; X1 = O=C([C@@H]1CC(O)CN1[*:1])[*:2]

Regarding `CC[C@H](C)[C@H](NC(=O)[C@H](Cc1cnc[nH]1)NC(=O)[C@@H]1CSSC[C@H](NC(=O)[C@@H](CCC(=O)O)NC(=O)[C@H](Cc2ccc(O)cc2)NC(=O)CCC(C(=O)O)N2CCN(CC(=O)O)CCN(CC(=O)O)CC2)C(=O)N2CC(O)C[C@H]2C(=O)N[C@@H](Cc2ccc(O)c(Cl)c2)C(=O)NCC(=O)N[C@@H](CC(C)C)C(=O)N1)C(=O)N[C@H](CCC(N)=O)C(N)=O` (stereo partly shown) [Compound ^68Ga-20, metal not drawn] ({NODAGA}-Y[dE]C[X1][Tyr(3-Cl)]GLCHI[dQ]-NH2; disulfide 3-8), the “ipsi: contra ratios” value in series [1] is recorded as “better ipsi: contra ratios”. The “uptake, functional probe assay” value in series [2] was “variable but significantly increased; also recorded: significantly higher uptake”. Besides, the blood clearance entry in series [3] (rat carotid artery crush injury, 2-120 min post injection) is “faster blood clearance”. Moreover, the metabolic stability result in series [3] (rat) was “better metabolic stability”.
